According to patent US4994485A, “Thio compounds having fungicidal activity” (Duphar International Research B.V., priority 1986, dated 1991):

Tests used:
Fusarium culmorum [1] = assay: Protection of seedlings against plant pathogenic seed fungus by seed treatment (wheat); assay type: in vivo; details: wheat seed infested with Fusarium culmorum; 3 g composition (10% by weight in kaolin) per kg of seed; after three weeks, 8°-12° C.; untreated 67
Protocol: Test with respect to the protection of seedlings against a plant pathogenic seed fungus, namely Fusarium culmorum, by means of a seed treatment.
Wheat seed, infested with Fusarium culmorum, is treated with the substance to be tested in the form of a composi tion in a quantity of 3 g per kg of seed. The composition is obtained by pulverising the substance to be tested and then intimately mixing with kaolin in a concentration of 10% by weight. The seed thus treated is sown in a tray containing soil which is placed in a Wisconsin tank with a bottom temperature of 8°-12° C. After three weeks the number of emerged and healthy plants is determined. The emergence of healthy plants from untreated seed serves as control. For comparison, the known substances 2-methylsulphinyl-4-methyl-5-nitrothiazole (a), 2-methylsulphinyl-3-nitrothiophene (b) and 2-ethylsulphinyl-3-nitro-5-acetylthiophene (c) mentioned hereinbefore are also tested. In the examples, the numbers of the compounds refer to the specification.

Pythium spp. = assay: Protection of seedlings against plant-pathogenic soil fungus by seed treatment (beet); assay type: in vivo; details: after 3 weeks, 18°-22° C., untreated 72
Protocol: Test with respect to the protection of seedlings against a plant-pathogenicsoil fungus, namely Pythium spp., by means of a seed treatment.
The compounds to be tested are processed to compositions by pulverising them and then mixing them intimately with kaolin in the desired concentration (see Table B). Beet seed is treated with these compositions in a quantity of 6 g of composition per kg of seed and then sown in trays with soil which was seriously infested with Pythium spp. After 3 weeks in a glass-house at 18°-22° C. and a relative humidity of 70-100%, the percentage of non-emerged and diseased seedlings (damping-off) is determined. The results are recorded in Table B. For comparison, the known substance 2-methylsulphinyl-4-methyl-5-nitrothiazole(a) is also tested.

Pythium splendens = assay: In vitro test on activity against Pythium splendens; assay type: cell-based; details: Globisporangium splendens, read-out: growth inhibition of the fungus
Pyrenophora graminea = assay: In vitro test on activity against Pyrenophora graminea; assay type: cell-based; details: 48 hours, 20° C., read-out: % growth inhibition of the fungus
Protocol: In vitro test on activity against Pyrenophora graminea.
(§1) The compound to be tested is processed in a culture medium consisting of 1% by weight of glucose, 0.2% by weight of a yeast extract (marmite), 0.5% by weight of a protein (pepton), 2.5% by weight of agar-agar, and 95.8% by weight of water, in petri dishes in concentrations of 3 and 10 ppm. The petri dishes are inoculated with the plant-pathogenic fungus Pyrenophora graminea and then kept at a temperature of 20° C. After 48 hours the growth-inhibiting activity of the compounds is determined visually. For comparison, the known substance (b) (see EXAMPLE XV) is also tested.

Leptosphaeria nodorum = assay: In vitro test on activity against Leptosphaeria nodorum; assay type: cell-based; details: Parastagonospora nodorum, read-out: growth inhibition of the fungus
Protocol: as §1
Compounds according to the invention are tested on i Leptosphaeria nodorum in the same manner as described in EXAMPLE XIX.

Fusarium culmorum [2] = assay: In vitro test on activity against Fusarium culmorum; assay type: cell-based; details: read-out: growth inhibition of the fungus
[3] = 600 mg of active substance per kg of seed
[4] = 1200 mg of active substance per kg of seed

Compound | Percentage of emerged, healthy plants (Fusarium culmorum [1]) [%] | percentage damping-off (Pythium spp.; [3]) [%] | percentage damping-off (Pythium spp.; [4]) [%] | inhibition at 10 ppm (Pythium splendens) [%] | inhibition at 3 ppm (Pyrenophora graminea; 3 ppm) [%] | inhibition at 10 ppm (Pyrenophora graminea) [%] | inhibition at 30 ppm (Leptosphaeria nodorum) [%] | inhibition at 30 ppm (Fusarium culmorum [2]) [%]
CC(=O)c1cc(C#N)c([S+](C)[O-])s1 (stereo not drawn) [(1), 2-methylsulphinyl-3-cyano-5-acetylthiophene] | 91 | 8 | 7 | ≥ 95 | – | – | – | –
CC(=O)c1sc([S+](C)[O-])c(C#N)c1-c1ccc(Cl)cc1 (stereo not drawn) [(6), 2-methylsulphinyl 3-cyano-4-(4-chlorophenyl)-5-acetylthiophene] | – | – | – | ≥ 95 | 54 | 77 | – | –
CC[S+]([O-])c1sc(C(C)=O)cc1C#N (stereo not drawn) [(9), 2-ethylsulphinyl-3-cyano-5-acetylthiophene] | 85 | 15 | 11 | ≥ 95 | – | – | ≥ 85 | –
COc1c(C#N)sc([S+](C)[O-])c1C#N (stereo not drawn) [(12), 2-methylsulphinyl-3,5-dicyano-4-methoxythiophene] | 93 | 0 | 0 | ≥ 95 | – | – | ≥ 85 | ≥ 75
CCOc1c(C#N)sc([S+]([O-])CC)c1C#N (stereo not drawn) [(14), 2-ethylsulphinyl-3,5-dicyano-4-ethoxythiophene] | 87 | 23 | 20 | ≥ 95 | – | – | ≥ 85 | ≥ 75
C[S+]([O-])c1sc(C(=O)c2ccccc2)c(Cl)c1C#N (stereo not drawn) [(31), 2-methylsulphinyl-3-cyano-4-chloro 5-benzoylthiophene] | – | – | – | ≥ 95 | – | 77 | ≥ 85 | ≥ 75
N#Cc1cc(C#N)c([S+]([O-])c2ccccc2)s1 (stereo not drawn) [(32), 2-phenylsulphinyl-3,5-dicyanothiophene] | – | – | – | ≥ 95 | – | – | ≥ 85 | ≥ 75
C[S+]([O-])c1sc(C#N)c(-c2ccc(Cl)cc2)c1C#N (stereo not drawn) [(35), 2-methylsulphinyl-3,5-dicyano-4-(4-chlorophenyl)thiophene] | – | – | – | ≥ 95 | – | 76 | ≥ 85 | ≥ 75
CCC[S+]([O-])c1sc(C#N)cc1C#N (stereo not drawn) [(40), 2-n-propylsulphinyl 3,5-dicyanothiophene] | – | – | – | ≥ 95 | – | – | ≥ 85 | ≥ 75
CCCC[S+]([O-])c1sc(C#N)c(OC)c1C#N (stereo not drawn) [(41), 2-n-butylsulphinyl-3,5-dicyano 4-methoxythiophene] | – | – | – | ≥ 95 | – | – | ≥ 85 | ≥ 75
N#Cc1cc(C#N)c(S(=O)(=O)c2ccccc2)s1 [(45), 2-phenylsulphonyl-3,5-dicyanothiophene] | – | – | – | ≥ 95 | – | – | ≥ 85 | ≥ 75
CC[S+]([O-])c1sc(C(=O)c2ccc(Cl)cc2)cc1C#N (stereo not drawn) [(47), 2-ethylsulphinyl-3-cyano-5-(4-chlorobenzoyl)thiophene] | – | – | – | ≥ 95 | – | 74 | ≥ 85 | ≥ 75
C[S+]([O-])c1sc(C(=O)c2ccccc2)cc1C#N (stereo not drawn) [(51), 2-methylsulphinyl-3-cyano-5-benzoylthiophene] | – | – | – | – | – | 71 | ≥ 85 | ≥ 75
CCSC(=C(C#N)c1ccc(Cl)cc1)[S+]([O-])CC (stereo not drawn) [(53), α-cyano-β-ethylsulphinyl-β-ethylthio-4-chlorostyrene] | – | – | – | – | – | 83 | ≥ 85 | ≥ 75
CCCC[S+]([O-])c1sc(C(C)=O)c(N)c1C#N (stereo not drawn) [(58), 2-n-butylsulphinyl-3 cyano-4-amino-5-acetylthiophene] | – | – | – | ≥ 95 | – | – | ≥ 85 | ≥ 75
CC[S+]([O-])c1sc(C(=O)c2ccccc2)c(N)c1C#N (stereo not drawn) [(65), 2-ethylsulphinyl-3-cyano-4-amino-5-benzoylthiophene] | – | – | – | – | – | – | ≥ 85 | ≥ 75

Compound | Percentage of emerged, healthy plants (Fusarium culmorum [1]) [%] | percentage damping-off (Pythium spp.; [3]) [%] | percentage damping-off (Pythium spp.; [4]) [%] | inhibition at 10 ppm (Pythium splendens) [%] | inhibition at 3 ppm (Pyrenophora graminea; 3 ppm) [%] | inhibition at 10 ppm (Pyrenophora graminea) [%] | inhibition at 30 ppm (Leptosphaeria nodorum) [%] | inhibition at 30 ppm (Fusarium culmorum [2]) [%]
CC[S+]([O-])c1sc(C(=O)c2ccc(Cl)cc2)c(N)c1C#N (stereo not drawn) [(66), 2 ethylsulphinyl-3-cyano-4-amino-5-(4-chlorobenzoyl)thiophene] | – | – | – | ≥ 95 | – | 84 | – | –
CCC[S+]([O-])c1sc(C(=O)c2ccccc2)c(N)c1C#N (stereo not drawn) [(67), 2-n-propylsulphinyl-3-cyano-4-amino-5-benzoylthiophene] | – | – | – | ≥ 95 | – | – | ≥ 85 | ≥ 75
CC[S+]([O-])c1sc(C#N)c(-c2ccccc2)c1C#N (stereo not drawn) [(71), 2-ethylsulphinyl-3,5-dicyano-4-phenylthiophene] | – | – | – | – | – | – | ≥ 85 | ≥ 75
CC[S+]([O-])c1sc(C(=O)c2ccc(Cl)cc2)c(Cl)c1C#N (stereo not drawn) [(72), 2-ethylsulphinyl-3-cyano-4-chloro-5-(4-chlorobenzoyl)thiophene] | – | – | – | ≥ 95 | – | 70 | ≥ 85 | ≥ 75
CCC[S+]([O-])c1sc(C(=O)c2ccc(Cl)cc2)cc1C#N (stereo not drawn) [(73), 2-n-propylsulphinyl-3-cyano-5-(4-chlorobenzolyl)thiophene] | – | – | – | – | – | – | ≥ 85 | ≥ 75
COc1c(C(=O)c2ccccc2)sc([S+](C)[O-])c1C#N (stereo not drawn) [(74), 2-methylsulphinyl-3-cyano-4-methoxy-5-benzoylthiophene] | – | – | – | ≥ 95 | – | – | ≥ 85 | ≥ 75
CCC[S+]([O-])c1sc(C(=O)c2ccccc2)c(OC)c1C#N (stereo not drawn) [(75), 2-n-propylsulphinyl-3-cyano-4-methoxy-5-benzoylthiophene] | – | – | – | – | – | – | ≥ 85 | ≥ 75
N#Cc1sc([S+]([O-])Cc2ccccc2)c(C#N)c1Cl (stereo not drawn) [(78), 2-benzylsulphinyl-3,5-dicyano-4-chlorothiophene] | – | – | – | ≥ 95 | – | 86 | – | ≥ 75
CCCC[S+]([O-])c1sc(C#N)c(Br)c1C#N (stereo not drawn) [(79), 2-n-butylsulphinyl-3,5-dicyano-4-bromothiophene] | – | – | – | ≥ 95 | – | 80 | – | ≥ 75
N#Cc1sc([S+]([O-])c2ccccc2)c(C#N)c1Cl (stereo not drawn) [(82), 2 phenylsulphinyl-3,5-dicyano-4-chlorothiophene] | – | – | – | ≥ 95 | – | 80 | – | ≥ 75
CCCC[S+]([O-])c1sc(C(C)=O)c(Br)c1C#N (stereo not drawn) [(86), 2-n-butylsulphinyl-3-cyano-4-bromo-5-acetylthiophene] | – | – | – | ≥ 95 | – | 76 | ≥ 85 | ≥ 75
CC[S+]([O-])c1sc(C(C)=O)c(-c2ccccc2)c1C#N (stereo not drawn) [(87), 2-ethylsulphinyl-3-cyano-4-phenyl-5-acetylthiophene] | – | – | – | – | – | – | ≥ 85 | ≥ 75
CCCC[S+]([O-])c1sc(C(=O)c2ccccc2)c(N)c1C#N (stereo not drawn) [(88), 2-n-butylsulphinyl-3-cyano-4-amino-5-benzoylthiophene] | – | – | – | – | – | – | ≥ 85 | ≥ 75
CCCCS(=O)(=O)c1sc(C#N)c(Br)c1C#N [(89), 2-n-butylsulphonyl 3,5-dicyano-4-bromothiophene] | – | – | – | ≥ 95 | – | – | ≥ 85 | ≥ 75
CC[S+]([O-])c1sc(C(=O)c2ccccc2)c(Cl)c1C#N (stereo not drawn) [(92), 2-ethylsulphinyl-3-cyano-4-chloro-5-benzoylthiophene] | – | – | – | – | – | – | ≥ 85 | ≥ 75
CC[S+]([O-])c1sc(C#N)c(Oc2ccccc2)c1C#N (stereo not drawn) [(94), 2-ethylsulphinyl-3,5-dicyano-4-phenoxythiophene] | – | – | – | ≥ 95 | – | 70 | ≥ 85 | –
